Source: patent US6172074A, “Imidazopyridines and oxazolopyridines” (Byk Gulden Lomberg Chemische Fabrik GmbH, priority 1996, dated 2001)
Counter-ions that a name gives are not always drawn.

System: PDE4
Experiment: Inhibition of the PDE4 activity (Bauer and Schwabe method, adapted to microtiter plates)
Format: biochemical
Details: inhibitory concentration as -log IC50 (mol/l)

Row | SMILES | -log IC50
1 | COc1ccc(-c2nc3ncccc3o2)c2c1OC1(CCCC1)C2 [Compound 1, 2-(2,3-Dihydro-7-methoxybenzofuran-2-spiro-1'-cyclopentan-4-yl)oxazolo[4,5-b]pyridine] | 7.93
2 | COc1ccc(-c2nc3cccnc3o2)c2c1OC1(CCCC1)C2 [Compound 2, 2-(2,3-Dihydro-7-methoxybenzofuran-2-spiro-1'-cyclopentan-4-yl)oxazolo[5,4-b]pyridine] | 6.61
3 | COc1ccc(-c2nc3cnccc3o2)c2c1OC1(CCCC1)C2 [Compound 3, 2-(2,3-Dihydro-7-methoxybenzofuran-2-spiro-1'-cyclopentan-4-yl)oxazolo[4,5-c]pyridine] | 8.76
4 | COc1ccc(-c2nc3cnccc3[nH]2)c2c1OC1(CCCC1)C2 [Compound 4, 2-(2,3-Dihydro-7-methoxybenzofuran-2-spiro-1'-cyclopentan-4-yl)imidazolo[4,5-c]pyridin] | 8.08
5 | COc1ccc(-c2nc3cnccc3[nH]2)c2c1OC1(CCCCC1)C2 [Compound 5, 2-(2,3-Dihydro-7-methoxybenzofuran-2-spiro-1'-cyclohexan-4-yl)imidazolo[4,5-c]pyridine] | 7.52
6 | COc1ccc(-c2nc3ncccc3[nH]2)c2c1OC1(CCCCC1)C2 [Compound 6, 2-(2,3-Dihydro-7-methoxybenzofuran-2-spiro-1'-cyclohexan-4-yl)imidazo[4,5-b]pyridine dihydrochloride hemihydrate] | 6.90
7 | COc1ccc(-c2nc3c(Cl)nccc3[nH]2)c2c1OC1(CCCC1)C2 [Compound 7, 4-Chloro-2-(2,3-dihydro-7-methoxybenzofuran-2-spiro-1'-cyclopentan-4-yl)imidazo[4,5-c]pyridine] | 7.98
